Source: US6458351B2, “Naturally extracted and synthetic hypoglycemic or hypolipidemic compositions” (priority 1999, dated 2002)

Columns and labels:
[1] = test system: yeast cells (Yeast strain Carlsbergensis); assay: Yeast fermentation assay (rate of CO2 production under anaerobic conditions); assay type: cell-based, S. carlsbergensis; settings: synthetic chromium complexes; for Activity in yeast fermentation assay, CO2 production (in words): different concentrations
Description: The cells were kept on a solid chromium depleted medium that contained 6.7 g yeast nitrogen base, 20 g of glucose, and 18 g agar per liter. Cells were grown over night in a liquid medium without Cr. Yeast cells were harvested during stationary phase, washed twice and resuspended in 0.1M phosphate buffer pH 5.7. An aliquot of 3×10^8 cells/ml was anaerobically incubated at 30° C. in Warburg vessels in the presence of 10 mM glucose and the examined fraction of GTF extracted from yeast. Enhancement of fermentation rate by natural or synthetic chromium compounds was measured.
Yeast cells were grown over night in liquid medium without Cr. Yeast cells were harvested during stationary phase, washed twice and resuspended in 0.1M phosphate buffer pH 5.7. An aliquot of 3×10^7 cells/ml was anaerobically incubated at 30° C. in Warburg vessels in the presence of 10 mM glucose and the examined fractions extracted from Saltbush.
The activity of the synthetic chromium complexes was examined in the yeast fermentation assay as described above. All the complexes were tested by adding samples of the subject complex, and measuring the rate of CO2 production.

[2] = test system: streptozoatocin diabetic rats; assay: Effect on insulin activity / blood glucose in streptozotocin diabetic rats; assay type: in vivo; settings: single dose; insulin at marginal dose 0.005-0.025 mg/Kg body weight
Description: Sprague Dawly male rats weighing 120-130 g were injected subcutanously with a single dose of streptozotocin (60 mg/kg body weight) in 0.5 ml citrate buffer, 0.05 M pH 4.5. Plasma glucose concentrations were measured seven days later using commercial glucometer. Animals with blood glucose higher than 250 mg/dl were chosen for the subsequent test with fractions purified from yeast extract or the Saltbush, as described in section 5.1 and 5.2.
When a marginal dose of insulin (0.005-0.025 mg/Kg body weight ) was injected into streptozoatocin diabetic rats a decrease of 10%-15% in blood glucose was observed after the injection. A single dose of active chromium fraction extraction from yeast decreased blood glucose by 15%-20%. A combination of both insulin and chromium containing natural compound from yeast created much higher reduction in blood glucose of 40%-45% reduction.

| Compound | Activity in yeast fermentation assay, CO2 production (in words) [1] | Inhibition of yeast fermentation at high concentrations (in words) [1] | Activity in yeast fermentation assay, CO2 production (in words) ([1]; listed as Chromium axcorbate) | Decrease in blood glucose [2] |
| --- | --- | --- | --- | --- |
| N[C@@H](CCC(=O)N[C@@H](CS)C(=O)NCC(=O)O)C(=O)O.[Cr] [Cr-GSH, Chromium-Glutathione] | increases the production of CO2 | partial inhibition | – | – |
| CC(=O)N[C@@H](CS)C(=O)O.[Cr] [Cr-NAC, Chromium N-Acetyl Cysteine] | increases the production of CO2 | partial inhibition | – | – |
| Chromium Ascorbate [Cr-Asc] | most active | without any inhibition | enhances the production of CO2 | – |
| insulin | – | – | – | 10%-15% |
